Peptide text beside a SMILES is read from it. * marks the point of attachment. 5TAMRA = CN(C)c1ccc2c(c1)Oc1cc(N(C)C)ccc1C21OC(=O)c2cc(C(=O)*)ccc21
Experiments:
[1] = Peptide stability in serum-containing cell media; assay type: in vitro ADME, bovine; conditions: differentiation medium with 10% FBS, 37 °C, 100 µM peptide, urea/TCA-acetone protein precipitation, UPLC C18, UV 214 and 498 nm, mean ± SD, N = 2
Procedure: Samples (20 µL) were withdrawn at 0, 15, 30, 60, 120, 180, and 240 min. At room temperature, 50 µL of 6 M urea was added for 10 min to denature plasma proteins. To precipitate plasma proteins, 50 µL of 20% (w/v) trichloroacetic acid in acetone was added and the sample incubated at −20 °C for 10 min. The samples were spun down at 10,000× g for 5 min at 5 °C. The acetone phase containing the TAMRA-peptides was filtered (pore size 0.22 µm) prior to analysis by UPLC using a Waters Acquity system with a C18 BEH reverse phase column (BEH C18 column, 2.1 mm × 50 mm × 1.7 µm). Mobile phase A consisted of 95% ultrapure water and 5% acetonitrile (ACN) with 0.1% trifluoroacetic acid (TFA) and mobile phase B of 95% ACN and 5% ultrapure water with 0.1% TFA. A linear gradient was used (min/%B): 0/5%, 12/45%, 12.1/100%, 13/100%, 13.1/5%, 15/5%, with a flow rate of 0.45 mL/min over 15 min with UV detection at 214 and 498 nm. Lower limits of detection are 6.2 µM for TAMRA-NR2B9c, 0.8 µM for TAMRA-Tat, 1.6 µM for TAMRA-Tat-NR2B9c, and 1.6 µM for TAMRA-Tat-N-dimer.

[2] = tested on: primary bovine brain capillary endothelial cells co-cultured with primary rat astrocytes; assay: Peptide stability on the in vitro bovine BBB model; assay type: in vitro ADME; conditions: FBS-free differentiation medium, 50 µM peptide, bovine BCEC/rat astrocyte co-culture, 37 °C, 90 rpm, HPLC C18, 220 and 543 nm, mean ± SD, N = 3
Procedure: BCECs co-cultured with rat astrocytes: a batch of capillary suspension was thawed and the DMSO removed by centrifugation in DMEM complete at 500× g for 5 min at room temperature. The pellet was re-suspended in DMEM complete and transferred to a culture flask (T75) coated with collagen and fibronectin (both 0.01 mg/mL in PBS). The capillary fragments were allowed to settle for 4–6 h in a humidified incubator (37 °C, 10% CO2) before changing the media to growth medium(+) (DMEM complete/ACM (1:1) with 125 µg/mL heparin) supplemented with 4 µg/mL pyromycin. On day 3, the BCECs received fresh growth medium(+) and rat astrocytes were seeded on the bottom of collagen and fibronectin coated (both 0.1 mg/mL in PBS) Transwell® plate permeable supports (Corning, Corning, NY, USA; 120,000 cells/1.12 cm^2 support with 0.4 µm pore size) in DMEM complete (37 °C, 10% CO2). On day 5, the media in the Transwell® plate was replaced by growth medium(-) (DMEM complete with 125 µg/mL heparin) and the endothelial cells detached from the flask using trypsin-EDTA (Thermo Fischer Scientific, Bedford, MA, USA). The remaining trypsin-EDTA was removed by centrifugation in DMEM complete at 1070× g for 5 min at room temperature. The endothelial cells were re-suspended in growth medium(-) and seeded on the apical side of the Transwell® plate permeable supports (100,000 cells/support). On day 8, the medium was changed to differentiation medium (DMEM containing 50 mM N-Tris-(hydroxymethyl)methyl-2-aminoethanesulfonic acid (TES), 10% FBS, 1% non-essential amino acids, 100 µg/mL penicillin/streptomycin (100 U/mL), 2 mM L-glutamine, 312.5 µM 8-(4-CPT)cyclic adenosine monophosphate, 0.5 µM dexamethasone, and 17.5 µM RO-20-1724). On day 11, the bovine BBB model was ready for use as evident by the measured transendothelial electrical resistance (TEER) values for each filter prior to experimental start.
Stability on the in vitro bovine BBB model: the differentiation medium was gently aspirated from the BCEC monolayers and replaced with 300 and 600 µL of 37 °C FBS-free differentiation medium containing 50 µM peptide on the luminal and abluminal side, respectively. The cells were incubated at 37 °C with horizontal shaking (90 rpm) for 4 h. Samples (10 µL) were withdrawn at 0, 10, 20, 30, 45, 60, 120, 180, and 240 min and two volumes of ice-cold ACN were immediately added prior to analysis by HPLC using an AdvanceBio Peptide Map column (C18, 4.6 × 150 mm, 2.7 µm particle size; Agilent, Glostrup, Denmark) connected to a Prominence system (LC-20 AD, SIL20 AC, SPD-M20A PDA, and CTO-20A modules; Shimadzu, Kyoto, Japan). Mobile phase A consisted of 95% ultrapure water and 5% ACN with 0.1% TFA and mobile phase B of 95% ACN and 5% ultrapure water with 0.1% TFA. […]

[3] = tested on: bovine BCECs co-cultured with rat astrocytes; assay: Peptide uptake into endothelial cells and astrocytes by confocal microscopy after fixation (bovine BBB model); assay type: cell-based; conditions: fixed cells; for peptide uptake in the astrocytes, 3 h: 100 µM peptide applied luminally; for peptide uptake in the astrocytes, 3 h / peptide uptake in the endothelial cells, 3 h: TAMRA fluorescence, confocal microscopy; for peptide uptake in the endothelial cells, 3 h / peptide uptake in the astrocytes, 15 min / peptide uptake in the endothelial cells, 15 min: 100 µM peptide; for peptide uptake in the astrocytes, 15 min / peptide uptake in the endothelial cells, 15 min: confocal microscopy (Figure S3)
Procedure: […] TEER was measured at room temperature using an Endohm 12 cup (World Precision Instruments, Sarasota, FL, USA) connected to a Millicell-ERS device (Millipore, Bedford, MA, USA). TEER was measured before application of the peptides and after each experiment. The bovine model had initial TEER values ranging from 771 to 1332 Ω·cm^2, whereas the mouse model had initial TEER values ranging from 136 to 217 Ω·cm^2.
To visualize the TAMRA-peptide taken up by the endothelial cells and astrocytes, the remaining filters (one per batch) from the permeation study using the in vitro bovine BBB model were prepared for confocal microscopy. After removal of the peptide solutions, the cells were fixed with 3% paraformaldehyde in PBS for 15 min at room temperature with horizontal shaking (90 rpm). The cells were washed thrice with PBS prior to permeabilization in 0.1% Triton X-100 in PBS for 5 min and blocking in 2% BSA in PBS for 30 min at room temperature with horizontal shaking (90 rpm). The filter inserts were cut out, divided into smaller pieces, and transferred to a 48-well plate to stain zonula ocludens-1 (ZO-1) in the BCECs and F-actin in the astrocytes. Filter pieces with BCECs facing upwards were incubated with a primary antibody directed against ZO-1 (1:100 in PBS with 2% BSA; Thermo Fischer Scientific, Bedford, MA, USA, no. 617300) for 2 h at room temperature. Subsequently, the filters were washed thrice for 5 min in PBS with 2% BSA prior to 30 min incubation with an Alexa-488-conjugated secondary antibody (1:100 in PBS with 2% BSA; Thermo Fischer Scientific, Bedford, MA, USA, no. A11008). Filter pieces with astrocytes facing upwards were incubated with Alexa-488-conjugated phalloidin (1:133 in PBS with 2% BSA; Thermo Fischer Scientific, Bedford, MA, USA) for 30 min at room temperature and washed thrice for 5 min in PBS with 2% BSA. The filter pieces were mounted on glass slides under coverslips using Immu-Mount™ mounting media and imaged using single wavelength excitation a Zeiss 510 laser-scanning confocal microscope (Carl Zeiss, Jena, Germany).

SMILES | % of the initial concentration remaining after 4 h of incubation in serum-supplemented cell media [1] | % remaining after 4 h of luminal incubation on the BCECs [2] | peptide uptake in the astrocytes, 3 h [3] | peptide uptake in the endothelial cells, 3 h [3] | peptide uptake in the astrocytes, 15 min [3] | peptide uptake in the endothelial cells, 15 min [3]
CC[C@H](C)[C@H](NC(=O)[C@H](CO)NC(=O)[C@H](CO)NC(=O)[C@H](CC(C)C)NC(=O)[C@H](CCCCN)NC(=O)c1ccc2c(c1)C(=O)OC21c2ccc(N(C)C)cc2Oc2cc(N(C)C)ccc21)C(=O)N[C@@H](CCC(=O)O)C(=O)N[C@@H](CO)C(=O)N[C@@H](CC(=O)O)C(=O)N[C@H](C(=O)O)C(C)C [TAMRA-NR2B9c] (5TAMRA-KLSSIESDV-OH) | 92.0% ± 12.6% | 95.7% ± 1.6% | not observed | not observed |  | 
CC[C@H](C)[C@H](NC(=O)CCOCCOCCN(CCOCCOCCC(=O)N[C@H](C(=O)N[C@@H](CCC(=O)O)C(=O)N[C@H](C(=O)N[C@@H](CC(=O)O)C(=O)N[C@H](C(=O)O)C(C)C)[C@@H](C)O)[C@@H](C)CC)C(=O)[C@H](CCCNC(=N)N)NC(=O)[C@H](CCCNC(=N)N)NC(=O)[C@H](CCCNC(=N)N)NC(=O)[C@H](CCC(N)=O)NC(=O)[C@H](CCCNC(=N)N)NC(=O)[C@H](CCCNC(=N)N)NC(=O)[C@H](CCCCN)NC(=O)[C@H](CCCCN)NC(=O)[C@H](CCCNC(=N)N)NC(=O)CNC(=O)[C@H](Cc1ccc(O)cc1)NC(=O)c1ccc2c(c1)C(=O)OC21c2ccc(N(C)C)cc2Oc2cc(N(C)C)ccc21)C(=O)N[C@@H](CCC(=O)O)C(=O)N[C@H](C(=O)N[C@@H](CC(=O)O)C(=O)N[C@H](C(=O)O)C(C)C)[C@@H](C)O [TAMRA-Tat-N-dimer] | 88.1% ± 1.8% | 85.0% ± 6.0% | not in the astrocytes | low level | not in the astrocytes | Minor uptake
CC[C@H](C)[C@H](NC(=O)[C@H](CO)NC(=O)[C@H](CO)NC(=O)[C@H](CC(C)C)NC(=O)[C@H](CCCCN)NC(=O)[C@H](CCCNC(=N)N)NC(=O)[C@H](CCCNC(=N)N)NC(=O)[C@H](CCCNC(=N)N)NC(=O)[C@H](CCC(N)=O)NC(=O)[C@H](CCCNC(=N)N)NC(=O)[C@H](CCCNC(=N)N)NC(=O)[C@H](CCCCN)NC(=O)[C@H](CCCCN)NC(=O)[C@H](CCCNC(=N)N)NC(=O)CNC(=O)[C@H](Cc1ccc(O)cc1)NC(=O)c1ccc2c(c1)C(=O)OC21c2ccc(N(C)C)cc2Oc2cc(N(C)C)ccc21)C(=O)N[C@@H](CCC(=O)O)C(=O)N[C@@H](CO)C(=O)N[C@@H](CC(=O)O)C(=O)N[C@H](C(=O)O)C(C)C [TAMRA-Tat-NR2B9c] (5TAMRA-YGRKKRRQRRRKLSSIESDV-OH) | 34.3% ± 1.7% | 58.6% ± 13.1% | observed in both cell types | observed in both cell types | uptake | uptake
CN(C)c1ccc2c(c1)Oc1cc(N(C)C)ccc1C21OC(=O)c2cc(C(=O)N[C@@H](Cc3ccc(O)cc3)C(=O)NCC(=O)N[C@@H](CCCNC(=N)N)C(=O)N[C@@H](CCCCN)C(=O)N[C@@H](CCCCN)C(=O)N[C@@H](CCCNC(=N)N)C(=O)N[C@@H](CCCNC(=N)N)C(=O)N[C@@H](CCC(N)=O)C(=O)N[C@@H](CCCNC(=N)N)C(=O)N[C@@H](CCCNC(=N)N)C(=O)N[C@@H](CCCNC(=N)N)C(=O)O)ccc21 [TAMRA-Tat] | 56.0% ± 8.9% | 76.9% ± 5.6% | observed in both cell types | observed in both cell types | uptake | uptake
